Test results as given in PubChem BioAssay (NCI).
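In this assay, cells in 96-well plates receive the compound at five concentrations for 48 hours. Endpoints are linearly interpolated between the surrounding concentrations. The concentration for full growth arrest is given as TGI.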

Experiments:
Experiment in all cases: inhibition of tumour cell growth, NCI panel, 48 h
M19-MEL melanoma = system: M19-MEL melanoma
OVCAR-4 ovarian = system: OVCAR-4 ovarian
HCT-116 colon = system: HCT-116 colon
RPMI-8226 leukemia = system: RPMI-8226 leukemia
HL-60(TB) leukemia = system: HL-60(TB) leukemia
LXFL 529 NSCLC = system: LXFL 529 NSCLC
K-562 leukemia = system: K-562 leukemia
SF-268 CNS = system: SF-268 CNS
HT29 colon = system: HT29 colon
RXF 393 renal = system: RXF 393 renal
UACC-62 melanoma = system: UACC-62 melanoma
COLO 205 colon = system: COLO 205 colon
SK-MEL-2 melanoma = system: SK-MEL-2 melanoma
SK-MEL-5 melanoma = system: SK-MEL-5 melanoma
A498 renal = system: A498 renal
SF-295 CNS = system: SF-295 CNS
M14 melanoma = system: M14 melanoma
EKVX NSCLC = system: EKVX NSCLC
DLD-1 colon = system: DLD-1 colon
NCI-H23 lung = system: NCI-H23 lung
SF-539 CNS = system: SF-539 CNS
DMS 273 small cell lung = system: DMS 273 small cell lung
NCI-H460 lung = system: NCI-H460 lung
KM20L2 colon = system: KM20L2 colon
HOP-62 NSCLC = system: HOP-62 NSCLC
UACC-257 melanoma = system: UACC-257 melanoma
ACHN renal = system: ACHN renal
IGROV1 ovarian = system: IGROV1 ovarian
TK-10 renal = system: TK-10 renal
MOLT-4 leukemia = system: MOLT-4 leukemia
SR leukemia = system: SR leukemia
U251 CNS = system: U251 CNS
A549 NSCLC = system: A549 NSCLC
SNB-75 CNS = system: SNB-75 CNS
HCT-15 colon = system: HCT-15 colon
SW-620 colon = system: SW-620 colon
786-0 renal = system: 786-0 renal
OVCAR-8 ovarian = system: OVCAR-8 ovarian
MALME-3M melanoma = system: MALME-3M melanoma
DMS 114 small cell lung = system: DMS 114 small cell lung
UO-31 renal = system: UO-31 renal
NCI-H226 lung = system: NCI-H226 lung
HCC-2998 colon = system: HCC-2998 colon
SNB-19 CNS = system: SNB-19 CNS
OVCAR-3 ovarian = system: OVCAR-3 ovarian
SK-MEL-28 melanoma = system: SK-MEL-28 melanoma
SN12C renal = system: SN12C renal
LOX IMVI melanoma = system: LOX IMVI melanoma
CCRF-CEM leukemia = system: CCRF-CEM leukemia
SNB-78 CNS = system: SNB-78 CNS
SK-OV-3 ovarian = system: SK-OV-3 ovarian
KM12 colon = system: KM12 colon
OVCAR-5 ovarian = system: OVCAR-5 ovarian
HOP-92 NSCLC = system: HOP-92 NSCLC
CAKI-1 renal = system: CAKI-1 renal
NCI-H522 lung = system: NCI-H522 lung

Measured: TGI

CC(C)C1CNC2N1C(=O)C2(C)OCc1ccccc1 (stereo not drawn)
not listed: SNB-78 CNS | SK-OV-3 ovarian | KM12 colon | OVCAR-5 ovarian | HOP-92 NSCLC | CAKI-1 renal | NCI-H522 lung
> 100 µM: all other assays above

ClCCC[Si]12OCCN(CCO1)CCO2
not listed: OVCAR-4 ovarian | M14 melanoma | KM20L2 colon | HOP-62 NSCLC | HCT-15 colon | LOX IMVI melanoma
> 100 µM: all other assays above

Cn1c(=O)c2nc3c4ccccc4c(=O)n(C)c3nc2n(C)c1=O
not listed: OVCAR-4 ovarian | HL-60(TB) leukemia | A498 renal | M14 melanoma | DLD-1 colon | DMS 273 small cell lung | NCI-H460 lung | HOP-62 NSCLC | LOX IMVI melanoma | CCRF-CEM leukemia | CAKI-1 renal | NCI-H522 lung
> 100 µM: all other assays above
